The source of these data is patent US20090068143A1, “ORALLY EFFECTIVE C[…]” (priority 2005, published 2009).

For one data set, the system named is TNF-α. Put plainly: Real-time RT-PCR gene expression in CNS of MOG induced EAE: TNF-α. Type of data set: in vivo, mouse. The conditions noted are these: 40 mg/kg p.o., day 31; over naive animals. On the procedure:
(§1) Total RNA is prepared using SV total RNA isolation system (Promega). The brains and spinal cords, which were removed on day 31 from five animals treated with vehicle (i.e. untreated) or 40 mg/kg p.o. of compound 18F (i.e. treated) in the MOG-induced EAE study, were homogenized in lysis buffer. The lysates were transferred to an RNA isolation column, treated with DNAse, washed and eluted according to kit instructions. RNA concentrations were determined using GeneQuant II (Pharmacia-Amersham). Complementary DNA (cDNA) was synthesized from total RNA using […] II reverse transcriptase (Life Technologies). […] Quantitative real-time RT-PCR included 1 μl of the cDNA, 300 nM of the appropriate forward and reverse primers (according to the gene monitored) and 7.5 μl of the reaction mix containing buffer, nucleotides, Taq polymerase and SYBER green (SYBER Green master mix, Applied Biosystems), in a total reaction volume of 15 μl. […] During each annealing step, the amount of the amplified product was measured by the fluorescence of the double strand DNA binding dye, SYBER Green. The cycle of threshold (CT), representing the PCR cycle at which an increase in fluorescence above a baseline signal can be first detected, was determined for each product. […] Results were expressed as fold increase of gene expression in treated or untreated animals above the naive animals. […]

In a further data set the test system is MCP-1. Kind of data set: Real-time RT-PCR gene expression in CNS of MOG induced EAE: MCP-1. The data set is classed as in vivo, mouse. Particulars: 40 mg/kg p.o., day 31, over naive animals. On the procedure: as §1
In general terms: Real-time PCR tracks product formation cycle by cycle.

Data set [1] can be described thus: Actual solubility in aqueous buffers / cosolvent (HPLC, spectrophotometer). Type of data set: physicochemical. Particulars: for solubility: thermodynamic from solid. On the procedure: The actual solubility of certain compounds of the invention was assessed in aqueous buffers and final concentration of compounds was determined using HPLC and spectrophotometer methodologies. […] Therefore, compounds that were designed following the same rational yielded unexpectedly divergent outcome, for instance in connection with solubility in aqueous solutions.
It should be noted that following lyophilization compound 18F could be dissolved in 80 mM phosphate buffer at pH 6.9 even more efficiently at concentrations up to 60 mg/ml, about two order of magnitudes higher than expected.
Approximately 11 g of compound 18F were lyophilized in one lyophilization cycle. A cosolvent mixture comprising 38.6% w/v of compound 18F was divided into several dishes to fit the lyophilization chamber. As a result of lyophilization, a dry product with improved physical properties such as flowability and less stickiness was obtained.

For a further data set, the system named is IFN-γ. Put plainly: Real-time RT-PCR gene expression in CNS of MOG induced EAE: IFN-γ. Type of data set: in vivo, mouse. The conditions noted are these: 40 mg/kg p.o., day 31, over naive animals. On the procedure: as §1
A further data set deals with F4/80. Put plainly: Real-time RT-PCR gene expression in CNS of MOG induced EAE: F4/80. Type of data set: in vivo, mouse. Particulars: 40 mg/kg p.o., day 31; over naive animals. On the procedure: as §1
The target in the next data set is CB1 receptor (Homo sapiens, UniProt P21554). Put plainly: CB1 binding assay.
CB1 receptor, sequence (P21554 whole entry): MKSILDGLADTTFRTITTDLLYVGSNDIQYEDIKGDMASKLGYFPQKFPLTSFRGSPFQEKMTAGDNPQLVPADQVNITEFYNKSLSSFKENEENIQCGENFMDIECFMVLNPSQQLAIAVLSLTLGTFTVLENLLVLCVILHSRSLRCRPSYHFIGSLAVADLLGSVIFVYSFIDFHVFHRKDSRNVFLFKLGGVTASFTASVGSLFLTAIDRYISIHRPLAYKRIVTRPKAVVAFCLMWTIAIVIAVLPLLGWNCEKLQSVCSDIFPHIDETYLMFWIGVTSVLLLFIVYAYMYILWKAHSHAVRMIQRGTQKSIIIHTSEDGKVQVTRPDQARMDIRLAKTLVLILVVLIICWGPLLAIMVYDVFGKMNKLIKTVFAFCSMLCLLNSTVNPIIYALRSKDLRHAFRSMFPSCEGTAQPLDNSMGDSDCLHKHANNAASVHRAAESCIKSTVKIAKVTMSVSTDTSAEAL

Converted amounts (≈) assume the structure as drawn. Where two headings read alike, the source gives them in different places. Marks after values point to notes of the source that are not given here.

The term solubility denotes the concentration that dissolves in the medium under given conditions. A word on the IC50: it is the concentration needed to halve the response being measured. For `CCCCCCC(C)(C)c1cc(O)c([C@H]2CC(=O)C3CC2C3(C)C)c(OC(=O)/C=C/C(=O)O)c1` (single isomer, unassigned; (-)) [Compound 18F, (−)-4-{4-[1,1-Dimethylheptyl]-2-fumarate-6-hydroxy-phenyl}-6,6-dimethyl-bicyclo[3.1.1]heptan-2-one], in the data set with TNF-α, the “Fold gene expression TNF-α, Brain, Treated” value is given as 2.5 fold and the “Fold gene expression TNF-α, Spinal Cord, Treated” value was found to be 15 fold. The “Fold gene expression MCP-1, Brain, Treated” value with MCP-1 was determined as 5.5 fold. The “Fold gene expression MCP-1, Spinal Cord, Treated” value in the data set on MCP-1 (untreated 19) amounted to 68 fold. In data set [1] (80 mM phosphate buffer, aqueous buffer, 80 mM phosphate buffer, read-out: solubility of non-lyophilized material), the solubility was around 10 mg/mL (≈ 21.2 mM). Further, the solubility in data set [1] (80 mM phosphate buffer, pH 6.9, aqueous buffer, lyophilized, 80 mM phosphate buffer, pH 6.9, read-out: solubility following lyophilization) is at most 60 mg/mL. Also, in data set [1] (80 mM phosphate buffer, pH 7.8, aqueous buffer, 80 mM phosphate buffer, pH 7.8, read-out: actual solubility), the solubility is at most 12 mg/mL. Besides, the “actual solubility higher than expected” value in data set [1] (80 mM phosphate buffer, pH 7.8 vs calculated) is “about 20 fold”. Also, in data set [1] (tert.butanol and water 62.5:32.5 (v/v)), the “dissolution in organic cosolvent solution” value is recorded as “up to 80 mg/ml”. Moreover, the “Fold gene expression IFN-γ, Spinal Cord, Treated” value with IFN-γ is 3 fold. For the same compound, the “Fold gene expression IFN-γ, Brain, Treated” value in the data set with IFN-γ (untreated −9) is recorded as 1* fold. In addition, in the data set on F4/80, the “Fold gene expression F4/80, Brain, Treated” value is listed as 1.5 fold and the “Fold gene expression F4/80, Spinal Cord, Treated” value is 5.5 fold. Besides, the IC50 on CB1 receptor amounted to 334 nM.
